Reference: PubChem BioAssay AID504844 (National Center for Advancing Translational Sciences (NCATS), 2011)

System: mouse plasma stability, LC-MS/MS, 48 h
Experiment: Inhibitors of HPGD: Mouse Plasma Stability Profiling
Settings: at 2 µM; active compounds read high
Source text: Human 15-Hydroxyprostaglandin dehydrogenase (HPGD) catalyzes the inactivation of prostaglandin E2, and plays a major role in cancer biology by antagonizing the oncogenic potential of cyclooxygenase type 2 (COX2). Follow-up assays are available, based on absorbance/fluorescence increase of NADH with the substrate 15-OH prostaglandin E2. Please see summary AID for more information on this project. After qHTS, hits were confirmed in follow-up assays, and leads were optimized through SAR. The resulting lead compound was further characterized through a battery ADME-Tox experiments, and this assay describes its stability in mouse plasma. NIH Chemical Genomics Center [NCGC] NIH Molecular Libraries Probe Centers Network [MLPCN] MLPCN Grant: MH084681-02 Assay Submitter (PI): Udo Oppermann, Structural Genomics Consortium
2microM of compound is incubated in mouse plasma, the reference compound is procaine. Compounds are incubated at 37 deg C for the pre-determined time periods and the when aliquots are removed. Samples are analyzed with LC-MS/MS.

Q: `Cc1cccc(-n2cnc3cc(C(=O)N4CCCCC4)ccc32)c1` was tested. Which percent remaining did it give?
A: 98%

Q: `Cc1cc(-c2nnc3n2CCCCC3)c(C)n1-c1ccccc1` was tested. Which percent remaining did it give?
A: 98%
